Data from patent US20060160095A1, “Survivin” (EiRx Therapeutics Limited, priority 2002, published 2006).

Key:
Format in all cases: cell-based, human
Neutrophils = assay: Measurement of apoptosis by DNA fragmentation (propidium iodide flow cytometry); details: neutrophils cultured overnight in the presence of GM-CSF
Procedure: Neutrophils are isolated from the blood as described in Example 1 and resuspended at a concentration of 2×10^6/ml. Five hundred microlitres are pipetted into wells of a 24 well plate and incubated in the presence or absence of survival factors.
After this incubation, the neutrophils are carefully resuspended by gentle agitation and the total contents of the well are placed into an eppendorf and centrifuged @2800 rpm for 2 min @ RT in a minifuge. The cell pellet is carefully resuspended in 300 μl of ice cold hypotonic fluorochrome solution (50 μg/ml Propidium Iodide, 0.1% Sodium Citrate and 0.1% Triton X-100) and placed in a fridge for 24 h @ 4° C.
Prepared samples are analysed with a FacsCalibre flow cytometer (Becton Dickinson) using double discrimination to ensure single cell suspension with Log Forward and Side Scatter Parameter acquisition.

Survivin mRNA = assay: LifeGrid microarray of Survivin transcripts in neutrophils; details: between 2 and 6 h following addition of GM-CSF
Procedure: Primary human neutrophils are isolated and purified from peripheral blood of normal healthy individuals using standard techniques. Neutrophils are resuspended in serum containing culture medium together with GM-CSF (50 U) at a concentration of 2×10^6/ml, and cultured for 0 h (control), 2 h, 4 h and 6 h at 37° C. Total RNA is then prepared from both groups using acid phenol/guanidine isothiocyanate extraction (RNAzol B; Biogenesis), or RNeasy RNA preparation kits (Qiagen). Any contaminating genomic DNA is removed by DNase treatment (DNase I, Gibco-BRL). […]
This example describes the use of a STORM Phosphoimager to quantitatively image positive signals across the filter arrays. […]
The captured image file is then analysed using software such as Array Vision (Imaging Research Inc.; See FIG. 5). […] This program contains facilities for spot detection and quantification, and background detection and quantification. […] As the data is imported to the database, a Normalisation factor is calculated and the sDENs values modified accordingly. […] A normalization factor may be derived from Linear Regression calculated by reference to housekeeping genes. Alternatively, the Global Mean is calculated as the average of the sDens values across all of the arrays to be compared and a normalisation factor is then derived by division of the overall spot density with the Global Mean value. […]

caspase-3 = assay: Caspase-3 immunoblotting in neutrophils; details: neutrophils cultured with GM-CSF or G-CSF for 10 h
Procedure: Immunoblotting is carried out as described above using supernatants of cell lysates. Caspase-3 is detected using a polyclonal anti-caspase-3 antibody (1/1000; Becton Dickinson Pharmingen, Heidelberg, Germany))
Neutrophils (2.5×10^6) are cultured in the presence or absence of GM-CSF (50 ng/ml), G-CSF (25 ng/ml), 2-MOE modified antisense or mismatch survivin oligonucleotides at the indicated concentrations for 10 h, washed with cold PBS and subsequently lysed in 50 μl cell lysis buffer (50 mM HEPES, pH 7.4/0.1% Chaps/5 mM DTT/0.1 mM EDTA) using a Teflon glass homogenizer (VWR International, Ismaning, Germany) on ice for 10 min. After a 10-min centrifugation step at 10,000×g at 4° C., an aliquot of the supernatant is saved for caspase-3 immunoblotting and caspase 3-like activity is measured in 10 μl supernatants as enzymatic-conversion of the colorimetric substrate Ac-DEVD-pNA at 405 nm according to the manufacturer's instructions (QuantiZyme caspase 3 cellular activity assay kit, Biomol, Plymouth Meeting, Pa., USA).

Granulocyte macrophage colony-stimulating factor [GM-CSF]
apoptosis by DNA fragmentation (G0/G1 and sub-G1 peaks) (Neutrophils): few cells in the sub-G1 peak
Expression of Survivin (microarray fold change) (Survivin mRNA): up-regulated
caspase-3 proform and 17-kDa fragment levels with cytokine (caspase-3): maintain greater amounts of the caspase-3 proform
